# In patent US12390441B2, “Immunomodulating o-het/aryl azalides” (Zoetis Services LLC, priority 2020, dated 2025):
# Marks after values point to notes of the source that are not given here.
# Experiments:
# [1] = tested on: BRD pathogens, M. haemolytica and P. multocida; assay: In-vitro MIC model, BRD pathogen screening panel; type: cell-based, Mannheimia haemolytica; Pasteurella multocida; details: at least one BRD strain
# TNF-α = assay: Whole blood assay, LPS stimulation, MSD cytokine detection; type: cell-based; details: fresh whole bovine blood
# IL-1β = assay: as above; type: cell-based, bovine; details: fresh whole bovine blood, LPS stimulation; drug concentration giving overstimulation (OS) of IL-1β
# IL-6 = assay: as above; type: cell-based; details: fresh whole bovine blood
smiles,measurement,setting,value
CC[C@H]1OC(=O)[C@H](C)[C@@H](O[C@H]2C[C@@](C)(OC)[C@@H](O)[C@H](C)O2)[C@H](C)[C@@H](O[C@@H]2O[C@H](C)C[C@H](N(C)C)[C@H]2Oc2ccccc2C#N)[C@](C)(O)C[C@@H](C)CN(C)[C@H](C)[C@@H](O)[C@]1(C)O [Example A-3],MIC flag at the example number (Table A),[1],A-3* (MIC ≤ 64 μg/mL for at least one BRD strain)
CC[C@H]1OC(=O)[C@H](C)[C@@H](O[C@H]2C[C@@](C)(OC)[C@@H](O)[C@H](C)O2)[C@H](C)[C@@H](O[C@@H]2O[C@H](C)C[C@H](N(C)C)[C@H]2Oc2ccc(Cl)nc2)[C@](C)(O)C[C@@H](C)CN(C)[C@H](C)[C@@H](O)[C@]1(C)O [Example A-5],MIC flag at the example number (Table A),[1],A-5* (MIC ≤ 64 μg/mL for at least one BRD strain)
CC[C@H]1OC(=O)[C@H](C)[C@@H](O[C@H]2C[C@@](C)(OC)[C@@H](O)[C@H](C)O2)[C@H](C)[C@@H](O[C@@H]2O[C@H](C)C[C@H](N(C)C)[C@H]2Oc2cnc(OC)nc2)[C@](C)(O)C[C@@H](C)CN(C)[C@H](C)[C@@H](O)[C@]1(C)O [Example A-7],MIC flag at the example number (Table A),[1],A-7* (MIC ≤ 64 μg/mL for at least one BRD strain)
CC[C@H]1OC(=O)[C@H](C)[C@@H](O[C@H]2C[C@@](C)(OC)[C@@H](O)[C@H](C)O2)[C@H](C)[C@@H](O[C@@H]2O[C@H](C)C[C@H](NC)[C@H]2Oc2ccc3ncccc3c2)[C@](C)(O)C[C@@H](C)CN(C)[C@H](C)[C@@H](O)[C@]1(C)O [Example A-8],MIC flag at the example number (Table A),[1],A-8* (MIC ≤ 64 μg/mL for at least one BRD strain)
CC[C@H]1OC(=O)[C@H](C)[C@@H](O[C@H]2C[C@@](C)(OC)[C@@H](O)[C@H](C)O2)[C@H](C)[C@@H](O[C@@H]2O[C@H](C)C[C@H](N(C)C)[C@H]2Oc2ccccc2Cl)[C@](C)(O)C[C@@H](C)CN(C)[C@H](C)[C@@H](O)[C@]1(C)O [Example A-10],MIC flag at the example number (Table A),[1],A-10* (MIC ≤ 64 μg/mL for at least one BRD strain)
"CC[C@H]1OC(=O)[C@H](C)[C@@H](O[C@H]2C[C@@](C)(OC)[C@@H](O)[C@H](C)O2)[C@H](C)[C@@H](O[C@@H]2O[C@H](C)C[C@H](NC)[C@H]2Oc2cncc(C(F)(F)F)c2)[C@](C)(O)C[C@@H](C)CN(C)[C@H](C)[C@@H](O)[C@]1(C)O [Example A-13, (2R,3S,4R,5R,8R,10R,11R,12S,13S,14R)-2-ethyl-3,4,10-trihydroxy-13-(((2R,4R,5S,6S)-5-hydroxy-4-methoxy-4,6-dimethyltetrahydro-2H-pyran-2-yl)oxy)-3,5,6,8,10,12,14-heptamethyl-11-(((2S,3R,4S,6R)-6-methyl-4-(methylamino)-3-((5-(trifluoromethyl)pyridin-3-yl)oxy)tetrahydro-2H-pyran-2-yl)oxy)-1-oxa-6-azacyclopentadecan-15-one]",MIC flag at the example number (Table A),[1],A-13* (MIC ≤ 64 μg/mL for at least one BRD strain)
CC[C@H]1OC(=O)[C@H](C)[C@@H](O[C@H]2C[C@@](C)(OC)[C@@H](O)[C@H](C)O2)[C@H](C)[C@@H](O[C@@H]2O[C@H](C)C[C@H](NC)[C@H]2Oc2cc(F)ccc2OC)[C@](C)(O)C[C@@H](C)CN(C)[C@H](C)[C@@H](O)[C@]1(C)O [Example A-14],MIC flag at the example number (Table A),[1],A-14* (MIC ≤ 64 μg/mL for at least one BRD strain)
CC[C@H]1OC(=O)[C@H](C)[C@@H](O[C@H]2C[C@@](C)(OC)[C@@H](O)[C@H](C)O2)[C@H](C)[C@@H](O[C@@H]2O[C@H](C)C[C@H](NC)[C@H]2Oc2cnc(OC)nc2)[C@](C)(O)C[C@@H](C)CN(C)[C@H](C)[C@@H](O)[C@]1(C)O [Example A-15],MIC flag at the example number (Table A),[1],A-15* (MIC ≤ 64 μg/mL for at least one BRD strain)
CCOc1ccc(O[C@H]2[C@H](O[C@@H]3[C@@H](C)[C@H](O[C@H]4C[C@@](C)(OC)[C@@H](O)[C@H](C)O4)[C@@H](C)C(=O)O[C@H](CC)[C@@](C)(O)[C@H](O)[C@@H](C)N(C)C[C@H](C)C[C@@]3(C)O)O[C@H](C)C[C@@H]2NC)cc1 [Example A-17],MIC flag at the example number (Table A),[1],A-17* (MIC ≤ 64 μg/mL for at least one BRD strain)
CC[C@H]1OC(=O)[C@H](C)[C@@H](O[C@H]2C[C@@](C)(OC)[C@@H](O)[C@H](C)O2)[C@H](C)[C@@H](O[C@@H]2O[C@H](C)C[C@H](N(C)C)[C@H]2Oc2cccc(OC)c2)[C@](C)(O)C[C@@H](C)CN(C)[C@H](C)[C@@H](O)[C@]1(C)O [Example A-20],MIC flag at the example number (Table A),[1],A-20* (MIC ≤ 64 μg/mL for at least one BRD strain)
CC[C@H]1OC(=O)[C@H](C)[C@@H](O[C@H]2C[C@@](C)(OC)[C@@H](O)[C@H](C)O2)[C@H](C)[C@@H](O[C@@H]2O[C@H](C)C[C@H](NC)[C@H]2Oc2ccc(F)c(S(C)(=O)=O)c2)[C@](C)(O)C[C@@H](C)CN(C)[C@H](C)[C@@H](O)[C@]1(C)O [Example A-22],MIC flag at the example number (Table A),[1],A-22* (MIC ≤ 64 μg/mL for at least one BRD strain)
CC[C@H]1OC(=O)[C@H](C)[C@@H](O[C@H]2C[C@@](C)(OC)[C@@H](O)[C@H](C)O2)[C@H](C)[C@@H](O[C@@H]2O[C@H](C)C[C@H](N(C)C)[C@H]2Oc2ccc(OC)nc2C)[C@](C)(O)C[C@@H](C)CN(C)[C@H](C)[C@@H](O)[C@]1(C)O [Example A-38],MIC flag at the example number (Table A),[1],A-38* (MIC ≤ 64 μg/mL for at least one BRD strain)
CC[C@H]1OC(=O)[C@H](C)[C@@H](O[C@H]2C[C@@](C)(OC)[C@@H](O)[C@H](C)O2)[C@H](C)[C@@H](O[C@@H]2O[C@H](C)C[C@H](NC)[C@H]2Oc2ccc(OC)nc2OC)[C@](C)(O)C[C@@H](C)CN(C)[C@H](C)[C@@H](O)[C@]1(C)O [Example A-42],MIC flag at the example number (Table A),[1],A-42* (MIC ≤ 64 μg/mL for at least one BRD strain)
CC[C@H]1OC(=O)[C@H](C)[C@@H](O[C@H]2C[C@@](C)(OC)[C@@H](O)[C@H](C)O2)[C@H](C)[C@@H](O[C@@H]2O[C@H](C)C[C@H](N(C)C)[C@H]2Oc2ccc(OC)nc2OC)[C@](C)(O)C[C@@H](C)CN(C)[C@H](C)[C@@H](O)[C@]1(C)O [Example A-43],MIC flag at the example number (Table A),[1],A-43* (MIC ≤ 64 μg/mL for at least one BRD strain)
CC[C@H]1OC(=O)[C@H](C)[C@@H](O[C@H]2C[C@@](C)(OC)[C@@H](O)[C@H](C)O2)[C@H](C)[C@@H](O[C@@H]2O[C@H](C)C[C@H](N(C)C)[C@H]2Oc2ccccc2OC)[C@](C)(O)C[C@@H](C)CN(C)[C@H](C)[C@@H](O)[C@]1(C)O [Example A-46],MIC flag at the example number (Table A),[1],A-46* (MIC ≤ 64 μg/mL for at least one BRD strain)
CC[C@H]1OC(=O)[C@H](C)[C@@H](O[C@H]2C[C@@](C)(OC)[C@@H](O)[C@H](C)O2)[C@H](C)[C@@H](O[C@@H]2O[C@H](C)C[C@H](N(C)C)[C@H]2Oc2cc(OC)cc(OC)c2)[C@](C)(O)C[C@@H](C)CN(C)[C@H](C)[C@@H](O)[C@]1(C)O [Example A-48],MIC flag at the example number (Table A),[1],A-48* (MIC ≤ 64 μg/mL for at least one BRD strain)
CC[C@H]1OC(=O)[C@H](C)[C@@H](O)[C@H](C)[C@@H](O[C@@H]2O[C@H](C)C[C@H](N(C)C(=O)N(C)c3ccccc3)[C@H]2Oc2ccc3ncsc3c2)[C@](C)(O)C[C@@H](C)CN(C)[C@H](C)[C@@H](O)[C@]1(C)O [Example C-11],MIC flag at the example number (Table C),[1],C-11* (MIC ≤ 64 μg/mL for at least one BRD strain)
CCCNC[C@]1(O)[C@H](C)O[C@@H](O[C@H]2[C@H](C)[C@@H](O[C@@H]3O[C@H](C)C[C@H](NC)[C@H]3Oc3ccccc3OC(F)(F)F)[C@](C)(O)C[C@@H](C)CN[C@H](C)[C@@H](O)[C@](C)(O)[C@@H](CC)OC(=O)[C@@H]2C)C[C@@]1(C)OC [Example E-5],MIC flag at the example number (Table E),[1],E-5* (MIC ≤ 64 μg/mL for at least one BRD strain)
CCCNC[C@]1(O)[C@H](C)O[C@@H](O[C@H]2[C@H](C)[C@@H](O[C@@H]3O[C@H](C)C[C@H](NC)[C@H]3Oc3ccccc3Cl)[C@](C)(O)C[C@@H](C)CN[C@H](C)[C@@H](O)[C@](C)(O)[C@@H](CC)OC(=O)[C@@H]2C)C[C@@]1(C)OC [Example E-14],MIC flag at the example number (Table E),[1],E-14* (MIC ≤ 64 μg/mL for at least one BRD strain)
CCCNC[C@]1(O)[C@H](C)O[C@@H](O[C@H]2[C@H](C)[C@@H](O[C@@H]3O[C@H](C)C[C@H](NCC(C)C)[C@H]3Oc3ccccc3)[C@](C)(O)C[C@@H](C)CN[C@H](C)[C@@H](O)[C@](C)(O)[C@@H](CC)OC(=O)[C@@H]2C)C[C@@]1(C)OC [Example E-155],IC50,TNF-α; Bos taurus,8 µM
same,IL-1ß OS of LPS,IL-1β,6 µM
same,IC50,IL-6; Bos taurus,8 µM
CCCNC[C@]1(O)[C@H](C)O[C@@H](O[C@H]2[C@H](C)[C@@H](O[C@@H]3O[C@H](C)C[C@H](N(CC)CC)[C@H]3Oc3ccccc3)[C@](C)(O)C[C@@H](C)CN[C@H](C)[C@@H](O)[C@](C)(O)[C@@H](CC)OC(=O)[C@@H]2C)C[C@@]1(C)OC [Example E-156],IC50,TNF-α,8 µM
same,IL-1ß OS of LPS,IL-1β,16 µM
same,IC50,IL-6,10 µM
CCCNC[C@]1(O)[C@H](C)O[C@@H](O[C@H]2[C@H](C)[C@@H](O[C@@H]3O[C@H](C)C[C@H](NC)[C@H]3Oc3ccccc3)[C@](C)(O)C[C@@H](C)CN(CCC)[C@H](C)[C@@H](O)[C@](C)(O)[C@@H](CC)OC(=O)[C@@H]2C)C[C@@]1(C)OC [Example E-157],IC50,TNF-α; Bos taurus,9 µM
same,IL-1ß OS of LPS,IL-1β,16 µM
same,IC50,IL-6; Bos taurus,10 µM
CCCNC[C@]1(O)[C@H](C)O[C@@H](O[C@H]2[C@H](C)[C@@H](O[C@@H]3O[C@H](C)C[C@H](N(C)C(=O)N(C)c4ncccn4)[C@H]3Oc3ccccc3)[C@](C)(O)C[C@@H](C)CN[C@H](C)[C@@H](O)[C@](C)(O)[C@@H](CC)OC(=O)[C@@H]2C)C[C@@]1(C)OC [Example F-8],IC50,TNF-α,169 µM
same,IL-1ß OS of LPS,IL-1β,40 µM
same,IC50,IL-6,167 µM
CCCNC[C@]1(O)[C@H](C)O[C@@H](O[C@H]2[C@H](C)[C@@H](O[C@@H]3O[C@H](C)C[C@H](N(C)C(=O)N(C)C(C)C)[C@H]3Oc3ccccc3)[C@](C)(O)C[C@@H](C)CN[C@H](C)[C@@H](O)[C@](C)(O)[C@@H](CC)OC(=O)[C@@H]2C)C[C@@]1(C)OC [Example F-27],IC50,TNF-α,11 µM
same,IL-1ß OS of LPS,IL-1β,1 µM
same,IC50,IL-6,4 µM
